# Marks after values point to notes of the source that are not given here.
# Key:
# [1] = Physical characteristics of the compounds (solubility, stability); conditions: easily dissolved in organic solvent having lower polarity than ethanol, but not water
# [2] = Biochemical index of blood and liver tissue in mice fed high fat diet containing sesquiterpene compound; format: in vivo, mouse
# Experimental: The composition of diet is described in the following Table 5. […] After experimental animals were fasted for above 12 hrs, they were anesthetized with diethylether, and their blood, liver and visceral fat tissues (epididymal fat, perirenal fat, mesenteric fat and abdominal fat) were collected. And then, they were washed with 0.1 M phosphate-buffered saline (pH 7.4), and their weights were measured. […] Concentration of total Plasma cholesterol, triglyceride and glucose was measured twice according to commercially available measurement kit (Bio Clinical system), respectively. Insulin concentration was measured by ELISA using mouse insulin kit (Shibayaki, Japan). […] The homogenate was mixed with 5 ml of chloroform:methanol solution (2:1, v/v), and centrifuged at 1,000×g for 10 min to separate lower phase. […] Three ml of chloroform:methanol:0.05% CaCl2 solution (3:48:47, v/v/v) were added to the resulting lower phase, and thoroughly mixed for 1 min. The mixture was centrifuged at 1,000×g for 10 min. The final lower phase was completely dried on nitrogen gas, and the dried lipid was dissolved in 1 ml of methanol to use analysis of lipid component. Triglyceride concentration in lipid extracts from liver tissues was measured according to commercially available measurement kit (Bio Clinical system) equal to that used in analysis of plasma.
# [3] = tested on: C. elegans; assay: Anti-obesity effect (fat content by Nile red staining) in C. elegans; format: in vivo, Caenorhabditis elegans; set-up: key to Fat content: A low fat content was indicated by +1; a high fat content was assigned with +4; conditions: for Fat content: Nile red staining
# Experimental: Using a dissecting microscope (×50 magnification), C. elegans at the 4th stage (L4, the imaginal stage) was transferred to 3 ml of a cholesterol-supplemented S-medium (containing NaCl, K2HPO4, KH2PO4, cholesterol, citrate, trace metals, CaCl2 and MgSO4), and 100 μl of E. coli OP50 (OD600=0.2) liquid-cultured overnight before 1 day of experiment was added thereto. The Pterocarpus indicus fraction sample was added to the liquid media containing C. elegans, followed by rotary culture in a dark room at 16° C. and 100 rpm. The water-insoluble sample was dissolved in DMSO and added to the culture media. The final concentration of DMSO was adjusted below 1%. […] 24 hours after the sample was added to C. elegans, 30 μl of a Nile red dye at a concentration of 10 μg/ml was added (final concentration of Nile red was adjusted to 100 ng/ml) to the media, followed by continuous rotary culture for 2 days.
# In order to arrest the locomotory movement of C. elegan, 20 μl of 0.3% NaN3 was dropped on a slide glass to which 100 μl of C. elegans cultured in the presence of Nile red for 2 days was added. Under a fluorescence microscope, adipocytes of C. elegans emitting red fluorescence in a dark room were micrographed and compared with the control group to thereby determine the amount of fat. A low fat content was indicated by +1, whereas a high fat content was assigned with +4. Adult (L4 stage) C. elegans immediately prior to egg-laying were used in this Example. Therefore, the eggs were hatched after sample treatment and most of adult C. elegans were killed at 3 day post-treatment. A fat content was examined in C. elegans which had newly hatched and grown.
# [4] = Body weight gain and total visceral fat weight in mice fed high fat diet containing sesquiterpene compound; format: in vivo, mouse; conditions: HFD with 0.2% compound in diet, C57BL mice, 8 weeks
# Source text: Obesity-inducible diet used in the present experiment was high fat diet (HFD: 40% fat calorie, 17 g Lard+3% maize oil/100 g diet) developed by the present inventors and the composition of diet containing sesquiterpene compounds was equal to that of HFD but each 8 sesquiterpene compounds with a concentration of 0.2% was included in diet [cedryl acetate-containing diet, (−)-α-cedrene-containing diet, (+)-β-cedrene-containing diet, cedrene epoxide-containing diet, methyl cedryl ether-containing diet, methyl cedryl ketone-containing diet, cedrenol-containing diet and (+)-cedrol-containing diet]. The composition of diet is described in the following Table 5.
# 6-old-week C57BL/63 male mice were adapted to laboratory environment during one week and divided into HFD control and 8 test groups according to randommized block design. […] Diet was supplied with water at 10-11 o'clock every morning, and intake amount of diet and body weight was measured every day and once of three days, respectively. The body weight was measure at 2 hrs after removing feed bin to block sudden change of body weight according to feed intake, and feed efficiency was calculated by dividing body weight gain by amount of total intake amount of diet during total experimental period which is from initial day supplying experimental diet to sacrificed day. After experimental animals were fasted for above 12 hrs, they were anesthetized with diethylether, and their blood, liver and visceral fat tissues (epididymal fat, perirenal fat, mesenteric fat and abdominal fat) were collected. And then, they were washed with 0.1 M phosphate-buffered saline (pH 7.4), and their weights were measured. Blood taken from abdominal aorta was centrifuged at 1,000×g for 15 min to separate plasma.
# [5] = HFD with compound in diet, 8 weeks, fasted
smiles,measurement,setting,value
"CO[C@]1(C)CC[C@@]23C[C@@H]1C(C)(C)[C@@H]2CC[C@H]3C [methyl cedryl ether, Methyl cedryl ether]",Solubility,[1],Fat soluble
same,Liver Triglyceride,"[2]; HFD with compound in diet, 8 weeks",24.4 ± 1.37 µmol/g
same,IRI (insulin resistance index),[2]; [5],0.61 ± 0.08* 10^−3 pmol insulin × mmol glucose × L^−2
same,Plasma Glucose,[2]; [5],5.61 ± 0.53 mmol/L
same,Plasma Insulin,[2]; [5],0.67 ± 0.07 ng/mL
same,Plasma Total cholesterol,[2]; [5],2.01 ± 0.24 mmol/L
same,Plasma Triglyceride,[2]; [5],1.29 ± 0.13 mmol/L
same,total cholesterol concentration reduced compared to HFD,"[2]; plasma, 8-week",46%
same,inhibitory effect on adipogenesis,[3]; low concentration of 1 μg/ml,notably inhibitory effect on adipogenesis
same,Fat content,[3]; sample concentration 1 μg/ml,+1
same,Fat content,[3]; sample concentration 10 μg/ml,+2
same,Fat content,[3]; sample concentration 100 μg/ml,+2
same,Body weight gain,[4],9.31 ± 0.91 g/8 weeks
same,total visceral fat weight,"[4]; epididymal, perirenal, mesenteric and abdominal fat",50.8 ± 6.12 mg/g body weight

# From patent publication US8481592B2, “Uses of sesquiterpene derivatives” (Kwang Dong Pharm Co., Ltd., priority 2008, dated 2013)
